Source: ChEMBL document CHEMBL1828496 (Eur J Med Chem, 2011)

What was measured:
[1] = biological target: T1, Amine oxidase [flavin-containing] B (Homo sapiens, UniProt P27338); test: Inhibition of human recombinant MAO-B expressed in baculovirus infected BTI-TN-5B1-4 cells assessed as production of hydrogen peroxide from p-tyramine at 1 mM after 15 mins by microplate fluorescence assay; conditions: bti-tn-5b1-4, 0.25 h, 1000 µM
T1 sequence (P27338 whole entry): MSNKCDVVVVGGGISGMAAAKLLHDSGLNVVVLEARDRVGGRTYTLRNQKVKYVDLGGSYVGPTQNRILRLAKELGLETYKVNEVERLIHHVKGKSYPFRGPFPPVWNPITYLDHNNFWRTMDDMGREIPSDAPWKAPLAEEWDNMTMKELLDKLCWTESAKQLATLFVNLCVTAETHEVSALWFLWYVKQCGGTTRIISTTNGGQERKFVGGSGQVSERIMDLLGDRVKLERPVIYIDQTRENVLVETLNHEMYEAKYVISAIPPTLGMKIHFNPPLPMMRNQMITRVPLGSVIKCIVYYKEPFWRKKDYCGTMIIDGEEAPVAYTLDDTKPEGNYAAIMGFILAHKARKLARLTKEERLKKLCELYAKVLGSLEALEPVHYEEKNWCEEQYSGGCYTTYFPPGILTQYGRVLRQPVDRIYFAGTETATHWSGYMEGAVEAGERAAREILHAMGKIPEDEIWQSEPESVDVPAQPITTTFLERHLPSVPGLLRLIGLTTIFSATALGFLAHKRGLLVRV

[2] = biological target: T2, Amine oxidase [flavin-containing] A (Homo sapiens, UniProt P21397); test: Inhibition of human recombinant MAO-A expressed in baculovirus infected BTI-TN-5B1-4 cells assessed as production of hydrogen peroxide from p-tyramine after 15 mins by microplate fluorescence assay
T2 sequence (P21397 whole entry): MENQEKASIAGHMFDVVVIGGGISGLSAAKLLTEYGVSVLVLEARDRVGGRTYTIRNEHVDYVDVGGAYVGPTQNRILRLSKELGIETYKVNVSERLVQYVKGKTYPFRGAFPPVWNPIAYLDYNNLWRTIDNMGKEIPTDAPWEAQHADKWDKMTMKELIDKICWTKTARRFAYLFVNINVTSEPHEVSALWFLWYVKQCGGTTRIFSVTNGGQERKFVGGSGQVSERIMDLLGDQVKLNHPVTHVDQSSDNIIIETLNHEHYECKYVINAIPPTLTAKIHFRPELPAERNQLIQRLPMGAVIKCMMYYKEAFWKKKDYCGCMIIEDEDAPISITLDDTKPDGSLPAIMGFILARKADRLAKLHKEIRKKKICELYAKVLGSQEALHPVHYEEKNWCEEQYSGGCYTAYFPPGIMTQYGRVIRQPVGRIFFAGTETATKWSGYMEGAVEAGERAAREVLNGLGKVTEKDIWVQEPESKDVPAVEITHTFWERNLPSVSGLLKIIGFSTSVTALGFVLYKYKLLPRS

[3] = biological target: T1, Amine oxidase [flavin-containing] B; test: biochemical; type: cell-based, BTI-TN-5B1-4
Description: Inhibition of human recombinant MAO-B expressed in baculovirus infected BTI-TN-5B1-4 cells assessed as production of hydrogen peroxide from p-tyramine after 15 mins by microplate fluorescence assay

Homo sapiens = organism: Homo sapiens; test: Selectivity ratio of IC50 for human recombinant MAO-A to IC50 for human recombinant MAO-B
[4] = Hydrolytic stability of the compound in water after 1 to 24 hrs by NMR spectroscopic analysis; type: physicochemical
[5] = Hydrolytic stability of the compound in dimethyl sulfoxide after 1 to 24 hrs by NMR spectroscopic analysis; type: physicochemical
[6] = Hydrolytic stability of the compound in phosphate buffer at pH 7.4 after 1 to 24 hrs by NMR spectroscopic analysis; type: physicochemical
[7] = Hydrolytic stability of the compound in acetonitrile after 1 to 24 hrs by NMR spectroscopic analysis; type: physicochemical
[8] = biological target: T2, Amine oxidase [flavin-containing] A; test: Inhibition of human recombinant MAO-A expressed in baculovirus infected BTI-TN-5B1-4 cells assessed as production of hydrogen peroxide from p-tyramine at 100 uM after 15 mins by microplate fluorescence assay; conditions: human, bti-tn-5b1-4, 0.25 h, 100 µM
[9] = biological target: T1, Amine oxidase [flavin-containing] B; test: Inhibition of human recombinant MAO-B expressed in baculovirus infected BTI-TN-5B1-4 cells assessed as production of hydrogen peroxide from p-tyramine at 100 uM after 15 mins by microplate fluorescence assay; conditions: human, bti-tn-5b1-4, 0.25 h, 100 µM

| inhibition (INH) [1] | IC50 [2] | IC50 [3] | Ratio IC50 (Homo sapiens) | Stability [4] | Stability [5] | Stability [6] | Stability [7] | inhibition (INH) [8] | inhibition (INH) [9] | SMILES |
| --- | --- | --- | --- | --- | --- | --- | --- | --- | --- | --- |
| Not Active |  |  |  |  |  |  |  |  |  | O=C(NCCN1CCOCC1)c1ccc(Cl)cc1 [MOCLOBEMIDE] |
|  | 41.4 µM | 4.52 µM | 9.16 | Stable | Stable | Stable | Stable |  |  | O=C(NNc1ccccc1)c1cc2ccccc2oc1=O |
|  |  |  |  | Stable | Stable | Stable | Stable | Not Active | Not Active | CCOC(=O)c1cc2cc(I)cc(I)c2oc1=O |
|  | 46.4 µM | 0.0215 µM | 2160 | Stable | Stable | Stable | Stable |  |  | CCOC(=O)c1cc2ccc(OC3CCCCCC3)cc2oc1=O |
